Measurements reported in patent publication US6664083B2, “Methods for racemizing N-acylamino acids and producing optically active amino acids” (Daichel Chemical Industries, Ltd., priority 2000, dated 2003).

system: N-acylamino acid racemase; test: Influence of inhibitors on N-acylamino acid racemase activity; type: biochemical, Sebekia benihana; conditions: not given
Procedure: (§1) The activity of N-acylamino acid racemase was measured by the following method.
(§2) To this reaction solution, 50 μl of enzyme solution was added, and the 500 μl of the mixture was allowed to react for 5 minutes (or for several ten minutes if the activity was low) at 30° C., followed by heating at 100° C. for 3 minutes to stop the reaction. Subsequently, 3 U of L-amino acylase were added to the mixture, and incubated for 1 hour at 30° C. The mixture was then heated at 100° C. for 3 minutes to stop the reaction.
(§3) The amount of L-methionine produced was measured by TNBS method after the reaction was stopped. The enzyme activity was defined as 1 unit (U) when 1 μmole of N-acetyl-L-methionine was produced from N-acetyl-D-methionine in a minute.
Influence of various enzyme inhibitors on N-acylamino acid racemase was examined in the enzymatic activity assay in which each inhibitor was added to the reaction solution at the final concentration of 1 mM. The mixture was incubated for 10 minutes at 30° C., using the reaction solution without any inhibitors as a control. […] For EDTA, enzyme activity was measured at a final concentration of 5 mM as well as 1 mM.

Compound | NAAR activity inhibited | Relative activity (%)
O=C(O)CI [Monoiodoacetic acid] | inhibited | 22%

same assay, conditions: inhibitor 1 mM, 10 minutes at 30° C.; activity in the absence of inhibitors taken as 100

Compound | Relative activity (%)
O=C(O)c1cc[c]([Hg][Cl])cc1 [p-chloromercuribenzoic acid] | 11%
O=C(NNc1ccccc1)NNc1ccccc1 [1,5-Diphenylcarbonohydrazide] | 68%
NN.O=S(=O)(O)O [Hydrazinium Sulfate] | 69%
NO [Hydroxylammonium chloride] | 88%
c1ccc(-c2ccccn2)nc1 [2,2′-Bipyridyl] | 55%
[F-].[Na+] [NaF] | 94%
O[C@H](CS)[C@H](O)CS (racemic) [dithiothreitol] | 84%
O=S(=O)(F)Cc1ccccc1 [phenylmethanesulfonyl fluoride] | 84%
CCN1C(=O)C=CC1=O [N-ethylmaleimide] | 96%
[I-].[K+] [KI] | 97%
O=C(O)CN(CCN(CC(=O)O)CC(=O)O)CC(=O)O [EDTA] | 10%

same assay, conditions: inhibitor 10 mM (table), 10 minutes at 30° C.; activity in the absence of inhibitors taken as 100

Compound | Relative activity (%)
O=C(O)CN(CCN(CC(=O)O)CC(=O)O)CC(=O)O [EDTA] | 0%

same assay, conditions: result in words

Compound | NAAR activity inhibited
O=C(O)c1cc[c]([Hg][Cl])cc1 [p-chloromercuribenzoic acid] | inhibited
O=C(O)CN(CCN(CC(=O)O)CC(=O)O)CC(=O)O [EDTA] | inhibited

system: N-acylamino acid racemase; test: Substrate specificity of N-acylamino acid racemase (enzyme activity assay, TNBS method); type: biochemical, Sebekia benihana; conditions: substrate 20 mM, 1 mM cobalt chloride, pH 7.5, 30° C.; activity on N-acetyl-D-methionine taken as 100
Procedure: The activity of N-acylamino acid racemase was measured by the following method. First, the following reaction solution was prepared. [table] […] Subsequently, 3 U of L-amino acylase were added to the mixture, and incubated for 1 hour at 30° C. The mixture was then heated at 100° C. for 3 minutes to stop the reaction. The amount of L-methionine produced was measured by TNBS method after the reaction was stopped. […] Substrate specificity was determined by measuring enzyme activities according to the above-mentioned enzyme assay, with varying the substrate in the reaction.

Compound | Relative activity (%)
CC(=O)N[C@@H](C)C(=O)O [N-acetylalanine] | 86%
CC(=O)N[C@@H](Cc1ccccc1)C(=O)O [N-acetylphenylalanine] | 74%
CC(=O)N[C@@H](CC(C)C)C(=O)O [N-acetylleucine] | 78%
CSCC[C@H](NC(C)=O)C(=O)O [N-acetylmethionine] | 100%
CC(=O)N[C@@H](Cc1c[nH]c2ccccc12)C(=O)O [N-acetyltryptophan] | 69%
CC(=O)N[C@@H](CC(=O)O)C(=O)O [N-acetylaspartic acid] | 68%
CC(=O)N[C@H](C(=O)O)C(C)C [N-acctylvaline] | 146%

system: N-acylamino acid racemase; test: Racemization of N-acetyltryptophan by N-acylamino acid racemase, optical purity by chiral HPLC; type: biochemical, Sebekia benihana; conditions: 0.5% substrate, 1 U NAAR, pH 6.5, 30° C. overnight
Procedure: A reaction solution containing 100 mM potassium phosphate buffer (pH 6.5), 1 U of the N-acylamino acid racemase, and 0.5% N-acetyl-L-tryptophan or N-acetyl-D-tryptophan was incubated at 30° C. overnight. Racemization was verified by measuring optical purity of tryptophan in the reaction solution by HPLC. The optical purity of N-acetyltryptophan was determined as follows. N-acetyltryptophan was extracted from the reaction solution with methyl ethyl ketone. After the solvent was removed, the reaction product was resolved by liquid chromatography using an optical resolution column. The measurement was carried out at room temperature, using CHIRALPAK WH (DAICEL CHEMICAL INDUSTRIES, LTD.) as the optical resolution column, and aqueous solution of 0.25 mM cupric sulfate as eluent (flow rate, 1 ml/min; detection wavelength, 254 nm) to determine the quantity and optical purity. As a result, it was shown that N-acetyltryptophan produced from either N-acetyl-L-tryptophan or N-acetyl-D-tryptophan by the method of the present invention was a racemate with optical purity of nearly 0% ee at the end of the reaction.

Compound | optical purity of N-acetyltryptophan at the end of the reaction
CC(=O)N[C@H](Cc1c[nH]c2ccccc12)C(=O)O [N-acetyl-D-tryptophan] | ~0 % ee
CC(=O)N[C@@H](Cc1c[nH]c2ccccc12)C(=O)O [N-acetyl-L-tryptophan] | ~0 % ee

system: N-acylamino acid racemase; test: Influence of metal ions on N-acylamino acid racemase activity; type: biochemical, Sebekia benihana; conditions: 1 mM
Procedure: as §1, §2, §3
Influence of various metal ions on N-acylamino acid racemase was examined in the enzymatic activity assay in which cobalt chloride (final concentration 1 mM) to be added was omitted from the reaction solution and instead each ion was added to the reaction at a final concentration of 1 mM. The mixture was incubated for 5 minutes at 30° C., and the amount of L-methionine produced was measured to determine the effect of each metal ion on the N-acylamino acid racemase, using the reaciton solution without any metal ions as a control. The enzyme activities were represented as relative activities, taking the activity in the presence of Co as 100.

Compound | effect of metal ion on NAAR activity
O.O.O.O.O.O.[Cl-].[Cl-].[Co+2] [CoCl2.6H2O] | effect of activation

same assay, conditions: metal ion 1 mM instead of cobalt chloride, 5 minutes at 30° C.; activity in the presence of Co taken as 100

Compound | Relative activity (%)
O.O.O.O.O.O.[Cl-].[Cl-].[Mg+2] [MgCl2.6H2O] | 27%
O.O.O.O.[Cl][Mn][Cl] [MnCl2.4H2O] | 60%
O.O.O.O.O.O.[Cl][Ni][Cl] [NiCl2.6H2O] | 37%
O.O.[Ca+2].[Cl-].[Cl-] [CaCl2.2H2O] | 12%
[Cl-].[K+] [KCl] | 16%
[Cl-].[Na+] [NaCl] | 17%
O.O.O.O.O.O.[Cl-].[Cl-].[Co+2] [CoCl2.6H2O] | 100%
Al2(SO4)3.14˜18H2O | 3%
[Cl-].[Cl-].[Zn+2] [ZnCl2] | 20%
[Cl][Fe][Cl] [FeCl2.nH2O] | 34%
O.O.[Cl][Sn][Cl] [SnCl2.2H2O] | 9%
O.O.[Ba+2].[Cl-].[Cl-] [BaCl2.2H2O] | 14%
O.O.O.O.O.O.[Cl-].[Cl-].[Cl-].[Fe+3] [FeCl3.6H2O] | 6%
O.O.[Cl][Cu][Cl] [CuCl2.2H2O] | 3%
